What follows are molecules tested against human APJ receptor (Homo sapiens (Human), UniProt P35414) (assay: Intracellular cAMP accumulation assay (APJ hcAMP, HTRF)). Settings: HEK293 cells stably expressing human APJ receptor; inhibition of forskolin-mediated cAMP production; read-out: Human APJ cAMP EC50 Potency range.
Chain of human APJ receptor (P35414 whole entry): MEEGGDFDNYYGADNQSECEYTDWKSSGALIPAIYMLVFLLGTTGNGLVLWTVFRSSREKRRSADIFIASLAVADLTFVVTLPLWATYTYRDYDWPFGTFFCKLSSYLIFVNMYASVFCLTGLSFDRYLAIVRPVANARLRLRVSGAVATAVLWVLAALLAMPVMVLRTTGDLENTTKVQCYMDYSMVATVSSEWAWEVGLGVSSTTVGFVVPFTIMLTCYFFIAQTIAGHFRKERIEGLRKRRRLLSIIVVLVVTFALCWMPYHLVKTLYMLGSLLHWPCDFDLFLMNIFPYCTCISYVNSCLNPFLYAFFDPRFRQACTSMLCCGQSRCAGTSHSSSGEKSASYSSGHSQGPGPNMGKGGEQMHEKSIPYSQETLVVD
Format: cell-based
How it was run: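 cAMP inhibition was quantified by HTRF against a cAMP standard curve, with EC50 fitted to a variable-slope sigmoidal curve. Compounds acted on 5,000 APJ-stable HEK293 cells for 30 minutes at room temperature alongside 2 μM forskolin and […] IBMX. Detection reagents were incubated 60 min.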
CCCCc1nc(O)c(-c2nnc(CC(=O)N(CC)CC)o2)c(O)c1-c1c(OC)cccc1OC [Example 177, 2-{5-[6-butyl-5-(2,6-dimethoxyphenyl)-2,4-dihydroxypyridin-3-yl]-1,3,4-oxadiazol-2-yl}-N,N-diethylacetamide] gave an EC50 of 0.01 to 10 nM.

Same assay, conditions: HEK293 cells stably expressing human APJ receptor; inhibition of forskolin-mediated cAMP production; read-out: hAPJ cAMP EC50 Potency range
For CCCCc1nc(O)c(-c2nnc(CN(C)C(=O)c3ccncc3)o2)c(O)c1-c1c(OC)cccc1OC [Example 159, N-({5-[6-butyl-5-(2,6-dimethoxyphenyl)-2,4-dihydroxypyridin-3-yl]-1,3,4-oxadiazol-2-yl}methyl)-N-methylpyridine-4-carboxamide], the EC50 was 0.01 to 10 nM.
In the case of CCCCc1nc(O)c(-c2nnc(CNC(=O)c3cccnc3)o2)c(O)c1-c1c(OC)cccc1OC [Example 160, N-({5-[6-butyl-5-(2,6-dimethoxyphenyl)-2,4-dihydroxypyridin-3-yl]-1,3,4-oxadiazol-2-yl}methyl)pyridine-3-carboxamide], the EC50 is reported as 0.01 to 10 nM.
Molecule CCCCc1nc(O)c(-c2nnc(CN(C)C(=O)c3ccccc3Cl)o2)c(O)c1-c1c(OC)cccc1OC [Example 161, N-({5-[6-butyl-5-(2,6-dimethoxyphenyl)-2,4-dihydroxypyridin-3-yl]-1,3,4-oxadiazol-2-yl}methyl)-2-chloro-N-methylbenzamide] has an EC50 of 0.01 to 10 nM.
For CCCCc1nc(O)c(-c2nnc(CNC(=O)c3cccc(Cl)c3)o2)c(O)c1-c1c(OC)cccc1OC [Example 162, N-({5-[6-butyl-5-(2,6-dimethoxyphenyl)-2,4-dihydroxypyridin-3-yl]-1,3,4-oxadiazol-2-yl}methyl)-3-chlorobenzamide], the EC50 was 0.01 to 10 nM.
CCCCc1nc(O)c(-c2nnc(CNC(=O)c3ccc(Cl)cc3)o2)c(O)c1-c1c(OC)cccc1OC [Example 163, N-({5-[6-butyl-5-(2,6-dimethoxyphenyl)-2,4-dihydroxypyridin-3-yl]-1,3,4-oxadiazol-2-yl}methyl)-4-chlorobenzamide] showed an EC50 of 0.01 to 10 nM.
Molecule CCCCc1nc(O)c(-c2nnc(CNC(=O)c3ccncc3)o2)c(O)c1-c1c(OC)cccc1OC [Example 164, N-({5-[6-butyl-5-(2,6-dimethoxyphenyl)-2,4-dihydroxypyridin-3-yl]-1,3,4-oxadiazol-2-yl}methyl)pyridine-4-carboxamide] has an EC50 of 0.01 to 10 nM.
With CCCCc1nc(O)c(-c2nnc(CN(C)C(=O)c3cccnc3)o2)c(O)c1-c1c(OC)cccc1OC [Example 165, N-({5-[6-butyl-5-(2,6-dimethoxyphenyl)-2,4-dihydroxypyridin-3-yl]-1,3,4-oxadiazol-2-yl}methyl)-N-methylpyridine-3-carboxamide] the EC50 was 0.01 to 10 nM.
CCCCc1nc(O)c(-c2nnc(CNC(=O)Cc3ccccc3)o2)c(O)c1-c1c(OC)cccc1OC [Example 166, N-({5-[6-butyl-5-(2,6-dimethoxyphenyl)-2,4-dihydroxypyridin-3-yl]-1,3,4-oxadiazol-2-yl}methyl)-2-phenylacetamide] gave an EC50 of 0.01 to 10 nM.
CCCCc1nc(O)c(-c2nnc(CNC(=O)C(C)(C)C)o2)c(O)c1-c1c(OC)cccc1OC [Example 167, N-({5-[6-butyl-5-(2,6-dimethoxyphenyl)-2,4-dihydroxypyridin-3-yl]-1,3,4-oxadiazol-2-yl}methyl)-2,2-dimethyl-propanamide] was tested, and the EC50 was 0.01 to 10 nM.
In the case of CCCCc1nc(O)c(-c2nnc(CNC(=O)c3ccccn3)o2)c(O)c1-c1c(OC)cccc1OC [Example 168, N-({5-[6-butyl-5-(2,6-dimethoxyphenyl)-2,4-dihydroxypyridin-3-yl]-1,3,4-oxadiazol-2-yl}methyl)pyridine-2-carboxamide], the EC50 is reported as 0.01 to 10 nM.
Molecule CCCCc1nc(O)c(-c2nnc(CN(C)C(=O)C(C)(C)C)o2)c(O)c1-c1c(OC)cccc1OC [Example 169, N-({5-[6-butyl-5-(2,6-dimethoxyphenyl)-2,4-dihydroxypyridin-3-yl]-1,3,4-oxadiazol-2-yl}methyl)-N,2,2-trimethyl-propanamide] has an EC50 of 0.01 to 10 nM.
CCCCc1nc(O)c(-c2nnc(CN)o2)c(O)c1-c1c(OC)cccc1OC [Example 170, 3-[5-(aminomethyl)-1,3,4-oxadiazol-2-yl]-6-butyl-5-(2,6-dimethoxyphenyl) pyridine-2,4-diol] was tested, and the EC50 was 10 to 100 nM.
Molecule CCCCc1nc(O)c(-c2nnc(CNC(=O)c3ccccc3)o2)c(O)c1-c1c(OC)cccc1OC [Example 171, N-({5-[6-butyl-5-(2,6-dimethoxyphenyl)-2,4-dihydroxypyridin-3-yl]-1,3,4-oxadiazol-2-yl}methyl) benzamide] has an EC50 of 0.01 to 10 nM.
CCCCc1nc(O)c(-c2nnc(CN(C)C(=O)c3ccccc3)o2)c(O)c1-c1c(OC)cccc1OC [Example 172, N-({5-[6-butyl-5-(2,6-dimethoxyphenyl)-2,4-dihydroxypyridin-3-yl]-1,3,4-oxadiazol-2-yl}methyl)-N-methylbenzamide] was tested, and the EC50 was 0.01 to 10 nM.
CCOCc1nc(O)c(-c2nnc(CNC(=O)c3ccccc3)o2)c(O)c1-c1c(OC)cccc1OC [Example 173, N-({5-[5-(2,6-dimethoxyphenyl)-6-(ethoxymethyl)-2,4-dihydroxypyridin-3-yl]-1,3,4-oxadiazol-2-yl}methyl) benzamide] gave an EC50 of 0.01 to 10 nM.
CCCCc1nc(O)c(-c2nnc(CNC(=O)CC(C)C)o2)c(O)c1-c1c(OC)cccc1OC [Example 174, N-({5-[6-butyl-5-(2,6-dimethoxyphenyl)-2,4-dihydroxypyridin-3-yl]-1,3,4-oxadiazol-2-yl}methyl)-3-methylbutanamide] showed an EC50 of 0.01 to 10 nM.
For CCCCc1nc(O)c(-c2nnc(CNC(C)=O)o2)c(O)c1-c1c(OC)cccc1OC [Example 175, N-({5-[6-butyl-5-(2,6-dimethoxyphenyl)-2,4-dihydroxypyridin-3-yl]-1,3,4-oxadiazol-2-yl}methyl) acetamide], the EC50 was 0.01 to 10 nM.
CCCCc1nc(O)c(-c2nnc(CNC(=O)C(F)(F)F)o2)c(O)c1-c1c(OC)cccc1OC [Example 176, N-({5-[6-butyl-5-(2,6-dimethoxyphenyl)-2,4-dihydroxypyridin-3-yl]-1,3,4-oxadiazol-2-yl}methyl)-2,2,2-trifluoroacetamide] was tested, and the EC50 was 10 to 100 nM.
In the case of CCCCc1nc(O)c(-c2nnc(CC(=O)NCc3ccccn3)o2)c(O)c1-c1c(OC)cccc1OC [Example 178, 2-{5-[6-butyl-5-(2,6-dimethoxyphenyl)-2,4-dihydroxypyridin-3-yl]-1,3,4-oxadiazol-2-yl}-N-(pyridin-2-ylmethyl)acetamide], the EC50 is reported as 10 to 100 nM.
Work on CCCCc1nc(O)c(-c2nnc(CC(=O)NC)o2)c(O)c1-c1c(OC)cccc1OC [Example 179, 2-{5-[6-butyl-5-(2,6-dimethoxyphenyl)-2,4-dihydroxypyridin-3-yl]-1,3,4-oxadiazol-2-yl}-N-methylacetamide] yielded an EC50 of 0.01 to 10 nM.
Work on CCCCc1nc(O)c(-c2nnc(CC(N)=O)o2)c(O)c1-c1c(OC)cccc1OC [Example 180, 2-{5-[6-butyl-5-(2,6-dimethoxyphenyl)-2,4-dihydroxypyridin-3-yl]-1,3,4-oxadiazol-2-yl}acetamide] yielded an EC50 of 10 to 100 nM.
CCCCc1nc(O)c(-c2nnc(CC(=O)NC(C)C)o2)c(O)c1-c1c(OC)cccc1OC [Example 181, 2-{5-[6-butyl-5-(2,6-dimethoxyphenyl)-2,4-dihydroxypyridin-3-yl]-1,3,4-oxadiazol-2-yl}-N-(propan-2-yl)acetamide] was tested, and the EC50 was 0.01 to 10 nM.
In the case of CCCCc1nc(O)c(-c2nnc(CC(=O)N(C)C)o2)c(O)c1-c1c(OC)cccc1OC [Example 182, 2-{5-[6-butyl-5-(2,6-dimethoxyphenyl)-2,4-dihydroxypyridin-3-yl]-1,3,4-oxadiazol-2-yl}-N,N-dimethylacetamide], the EC50 is reported as 0.01 to 10 nM.
In the case of CCCCc1nc(O)c(-c2nnc(CC(=O)Nc3ccc(OC)cc3)o2)c(O)c1-c1c(OC)cccc1OC [Example 183, 2-{5-[6-butyl-5-(2,6-dimethoxyphenyl)-2,4-dihydroxypyridin-3-yl]-1,3,4-oxadiazol-2-yl}-N-(4-methoxyphenyl) acetamide], the EC50 is reported as 10 to 100 nM.
CCCCc1nc(O)c(-c2nnc(CC(=O)N3CCNC(=O)C3)o2)c(O)c1-c1c(OC)cccc1OC [Example 184, 4-(2-{5-[6-butyl-5-(2,6-dimethoxyphenyl)-2,4-dihydroxypyridin-3-yl]-1,3,4-oxadiazol-2-yl}acetyl) piperazin-2-one] showed an EC50 of 0.01 to 10 nM.
CCCCc1nc(O)c(-c2nnc(CC(=O)NCc3ccccc3)o2)c(O)c1-c1c(OC)cccc1OC [Example 186, N-benzyl-2-{5-[6-butyl-5-(2,6-dimethoxyphenyl)-2,4-dihydroxypyridin-3-yl]-1,3,4-oxadiazol-2-yl}acetamide] was tested, and the EC50 was 0.01 to 10 nM.
Molecule CCCCc1nc(O)c(-c2nnc(CC(=O)NCC)o2)c(O)c1-c1c(OC)cccc1OC [Example 187, 2-{5-[6-butyl-5-(2,6-dimethoxyphenyl)-2,4-dihydroxypyridin-3-yl]-1,3,4-oxadiazol-2-yl}-N-ethylacetamide] has an EC50 of 0.01 to 10 nM.
CCCCc1nc(O)c(-c2nnc(CC(=O)NC3CC3)o2)c(O)c1-c1c(OC)cccc1OC [Example 188, 2-{5-[6-butyl-5-(2,6-dimethoxyphenyl)-2,4-dihydroxypyridin-3-yl]-1,3,4-oxadiazol-2-yl}-N-cyclo-propylacetamide] gave an EC50 of 0.01 to 10 nM.
CCCCc1nc(O)c(-c2nnc(CC(=O)NCCC)o2)c(O)c1-c1c(OC)cccc1OC [Example 189, 2-{5-[6-butyl-5-(2,6-dimethoxyphenyl)-2,4-dihydroxypyridin-3-yl]-1,3,4-oxadiazol-2-yl}-N-propylacetamide] was tested, and the EC50 was 0.01 to 10 nM.
CCCCc1nc(O)c(-c2nnc(CC(=O)NCCF)o2)c(O)c1-c1c(OC)cccc1OC [Example 190, 2-{5-[6-butyl-5-(2,6-dimethoxyphenyl)-2,4-dihydroxypyridin-3-yl]-1,3,4-oxadiazol-2-yl}-N-(2-fluoroethyl) acetamide] showed an EC50 of 0.01 to 10 nM.

Same assay, conditions: hAPJ cAMP EC50 Potency range (nM), HEK293 cells stably expressing human APJ receptor; inhibition of forskolin-mediated cAMP production
Molecule CCCCc1nc(O)c(-c2nnc(CC(=O)N3CCN(C)CC3)o2)c(O)c1-c1c(OC)cccc1OC [Example 185, 2-{5-[6-butyl-5-(2,6-dimethoxyphenyl)-2,4-dihydroxypyridin-3-yl]-1,3,4-oxadiazol-2-yl}-1-(4-methylpiperazin-1-yl)ethan-1-one] has an EC50 of 10 to 100 nM.
